Consider 20 compounds from patent publication US8580825B2, “Oxadiazole inhibitors of leukotriene production” (Boehringer Ingelheim International GmbH, priority 2010, dated 2013).

As usually defined, the IC50 is the concentration needed to halve the response being measured.

The test system of assay [1] is synthesis of LTB4 in human whole blood. Kind of assay: human whole blood LTB4 production inhibition assay. The class given is cell-based. To be noted: calcimycin stimulated, read-out: hWB LTB4 IC50. In a few lines: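 Heparinized human whole blood was preincubated with compound for 15 min at 37° C, then stimulated with calcimycin (20 μM final, in PBS pH 7.4) for a further 30 min at 37° C. Plasma LTB4 was quantified by antibody-based homogeneous time-resolved fluorescence.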

Assay [2] addresses T1, recombinant human FLAP protein (Homo sapiens, UniProt P20292).
T1 construct: made in house; host or cells: Sf9 insect cells (100,000xg membrane fraction used)
T1 sequence (P20292 1-161): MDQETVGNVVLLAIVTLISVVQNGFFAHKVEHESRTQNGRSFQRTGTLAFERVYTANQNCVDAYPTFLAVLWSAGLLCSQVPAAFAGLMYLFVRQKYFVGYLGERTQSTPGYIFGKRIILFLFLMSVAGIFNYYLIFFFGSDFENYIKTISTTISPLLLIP
The experiment in a line: FLAP binding assay (Scintillation Proximity Assay, displacement of [125I]L-691,831). The note with it: read-out: FLAP SPA IC50. The essentials: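 Scintillation proximity displacement of [125I]L-691,831 (0.08 nM) from membranes of sf9 cells expressing recombinant human FLAP (5 μg/well) on WGA SPA beads, pH 7.5 Tris buffer. Plates shaken 2 h before counting. Non-specific binding defined with 10 μM unlabelled L-691,831.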
In general terms: In a scintillation proximity assay essentially only radioactivity close to the scintillant gives light.

`CNC(=O)Cn1cc(-c2nc([C@](C)(c3ccc(-c4cnc(N)nc4)nc3)C(C)C)no2)cn1` [Example 54, 2-[4-(3-{(2S)-2-[6-(2-aminopyrimidin-5-yl)pyridin-3-yl]-3-methylbutan-2-yl}-1,2,4-oxadiazol-5-yl)-1H-pyrazol-1-yl]-N-methylacetamide]: the IC50 in assay [1] turned out to be 750 nM; in assay [2] it was 70.7 nM.

For `COCCN(C)c1cnc(-c2nc([C@@](C)(c3ccc(-c4cnc(N)nc4)nc3)C(C)C)no2)cn1` [Example 55, 5-{5-[(2R)-2-(5-{5-[(2-methoxyethyl)(methyl)amino]pyrazin-2-yl}-1,2,4-oxadiazol-3-yl)-3-methylbutan-2-yl]pyridin-2-yl}pyrimidin-2-amine], the values for the IC50 in assay [1] and in assay [2] were 46 nM and 2.5 nM, respectively.

On to `COCCN(C)c1cnc(-c2nc([C@](C)(c3ccc(-c4cnc(N)nc4)nc3)C(C)C)no2)cn1` [Example 56, 5-{5-[(2S)-2-(5-{5-[(2-methoxyethyl)(methyl)amino]pyrazin-2-yl}-1,2,4-oxadiazol-3-yl)-3-methylbutan-2-yl]pyridin-2-yl}pyrimidin-2-amine], for which the figures for the IC50 in assay [1] and in assay [2] were 230 nM and 11.8 nM, respectively.

Consider `Cn1cc(-c2nc([C@@](C)(c3ccc(-c4cnc(N)nc4)nc3)C3CC3)no2)cn1` [Example 57, 5-(5-{(1R)-1-cyclopropyl-1-[5-(1-methyl-1H-pyrazol-4-yl)-1,2,4-oxadiazol-3-yl]ethyl}pyridin-2-yl)pyrimidin-2-amine], for which the IC50 in assay [1] is 33 nM; in assay [2], 16 nM.

In the case of `Cn1cc(-c2nc([C@](C)(c3ccc(-c4cnc(N)nc4)nc3)C3CC3)no2)cn1` [Example 58, 5-(5-{(1S)-1-cyclopropyl-1-[5-(1-methyl-1H-pyrazol-4-yl)-1,2,4-oxadiazol-3-yl]ethyl}pyridin-2-yl)pyrimidin-2-amine], the figures for the IC50 in assay [1] and in assay [2] were 980 nM and 230 nM, respectively.

`CC(C)[C@@](C)(c1ccc(-c2cnc(N)nc2)nc1)c1noc(-c2cnn(CC(=O)N(C)C)c2)n1` [Example 59, 2-[4-(3-{(2S)-2-[6-(2-aminopyrimidin-5-yl)pyridin-3-yl]-3-methylbutan-2-yl}-1,2,4-oxadiazol-5-yl)-1H-pyrazol-1-yl]-N,N-dimethylacetamide]: the IC50 turned out to be 1800 nM in assay [1] and 450 nM in assay [2].

On to `CC(C)[C@](C)(c1ccc(-c2ccc(N)nc2)nc1)c1noc(-c2cnn(C)c2)n1` [Example 60, 5-{(2R)-3-methyl-2-[5-(1-methyl-1H-pyrazol-4-yl)-1,2,4-oxadiazol-3-yl]butan-2-yl}-2,3′-bipyridin-6′-amine], for which the IC50 in assay [1] is 17 nM; in assay [2] it was 3.4 nM.

As for `CC(C)[C@](C)(c1ccc(-c2cnc(N)nc2)nc1)c1noc(-c2cnn(CC(=O)N(C)C)c2)n1` [Example 61, 2-[4-(3-{(2R)-2-[6-(2-aminopyrimidin-5-yl)pyridin-3-yl]-3-methylbutan-2-yl}-1,2,4-oxadiazol-5-yl)-1H-pyrazol-1-yl]-N,N-dimethylacetamide], the figures for the IC50 in assay [1] and in assay [2] were 48 nM and 3 nM, respectively.

Regarding `CC(C)C(C)(c1ccc(-c2cnc(N)nc2)nc1)c1noc(-c2ccc(I)cc2)n1` (stereo not shown) [Example 62, 5-(5-{2-[5-(4-iodophenyl)-1,2,4-oxadiazol-3-yl]-3-methylbutan-2-yl}pyridin-2-yl)pyrimidin-2-amine], the IC50 in assay [1] was 420 nM; in assay [2] it was 19.4 nM.

Regarding `CC(c1ccc(-c2cnc(N)nc2)nc1)(c1noc(-c2cnn(C3COC3)c2)n1)C1CC1` (stereo not shown) [Example 63, 5-[5-(1-cyclopropyl-1-{5-[1-(oxetan-3-yl)-1H-pyrazol-4-yl]-1,2,4-oxadiazol-3-yl}-ethyl)pyridin-2-yl]pyrimidin-2-amine], the IC50 in assay [1] is 29 nM; in assay [2] it was 8.7 nM.

Regarding `CC(c1ccc(-c2cnc(N)nc2)nc1)(c1noc(-c2cn[nH]c2)n1)C1CC1` (stereo not shown) [Example 64, 5-(5-{1-cyclopropyl-1-[5-(1H-pyrazol-4-yl)-1,2,4-oxadiazol-3-yl]ethyl}pyridin-2-yl)pyrimidin-2-amine], the IC50 in assay [1] was found to be 80 nM; in assay [2], 6.3 nM.

For the compound `C=C(CO)n1cc(-c2nc(C(C)(c3ccc(-c4cnc(N)nc4)nc3)C3CC3)no2)cn1` (stereo not shown) [Example 65, 2-[4-(3-{1-[6-(2-aminopyrimidin-5-yl)pyridin-3-yl]-1-cyclopropylethyl}-1,2,4-oxadiazol-5-yl)-1H-pyrazol-1-yl]prop-2-en-1-ol], the values for the IC50 in assay [1] and in assay [2] were 28 nM and 1.6 nM, respectively.

On to `CN(C)C(=O)Cn1cc(-c2nc(C(C)(c3ccc(-c4cnc(N)nc4)nc3)C3CC3)no2)cn1` (stereo not shown) [Example 67, 2-[4-(3-{1-[6-(2-aminopyrimidin-5-yl)pyridin-3-yl]-1-cyclopropylethyl}-1,2,4-oxadiazol-5-yl)-1H-pyrazol-1-yl]-N,N-dimethylacetamide], for which the IC50 in assay [1] came to 290 nM; in assay [2], 110 nM.

As to `COCCn1cc(-c2nc(C(C)(c3ccc(-c4cnc(N)nc4)nc3)C3CC3)no2)cn1` (stereo not shown) [Example 68, 5-[5-(1-cyclopropyl-1-{5[1-(2-methoxyethyl)-1H-pyrazol-4-yl]-1,2,4-oxadiazol-3-yl}ethyl)pyridin-2-yl]pyrimidin-2-amine], the values for the IC50 in assay [1] and in assay [2] were 80 nM and 24 nM, respectively.

With `CC(C)C(C)(c1ccc(-c2cnc(N)nc2)nc1)c1noc(-c2ccc(I)c(Br)c2)n1` (stereo not shown) [Example 69, 5-(5-{2-[5-(3-bromo-4-iodophenyl)-1,2,4-oxadiazol-3-yl]-3-methylbutan-2-yl}pyridin-2-yl)pyrimidin-2-amine], the IC50 in assay [1] turned out to be 840 nM; in assay [2], 64.8 nM.

`CC(C)C(C)(c1ccc(-c2cnc(N)nc2)nc1)c1noc(-c2cccnc2)n1` (stereo not shown) [Example 70, 5-(5-{3-methyl-2-[5-(pyridin-3-yl)-1,2,4-oxadiazol-3-yl]butan-2-yl}pyridin-2-yl)pyrimidin-2-amine]: the IC50 in assay [1] amounted to 240 nM; in assay [2], 12.4 nM.

As for `CC(C)C(C)(c1ccc(-c2cnc(N)nc2)nc1)c1noc(-c2ccccc2)n1` (stereo not shown) [Example 71, 5-{5-[3-methyl-2-(5-phenyl-1,2,4-oxadiazol-3-yl)butan-2-yl]pyridin-2-yl}pyrimidin-2-amine], the IC50 came to 840 nM in assay [1] and 8.1 nM in assay [2].

As for `Cc1ccc(-c2nc(C(C)(c3ccc(-c4cnc(N)nc4)nc3)C(C)C)no2)cn1` (stereo not shown) [Example 72, 5-(5-{3-methyl-2-[5-(6-methylpyridin-3-yl)-1,2,4-oxadiazol-3-yl]butan-2-yl}pyridin-2-yl)pyrimidin-2-amine], the IC50 in assay [1] came out at 440 nM; in assay [2], 26.4 nM.

`CC(C)C(C)(c1ccc(-c2cnc(N)nc2)nc1)c1noc(-c2cn[nH]c2)n1` (stereo not shown) [Example 73, 5-(5-{3-methyl-2-[5-(1H-pyrazol-4-yl)-1,2,4-oxadiazol-3-yl]butan-2-yl}pyridin-2-yl)pyrimidin-2-amine]: the IC50 in assay [1] was determined as 110 nM; in assay [2] it was 3.9 nM.

Take `CC(C)C(C)(c1ccc(-c2cnc(N)nc2)nc1)c1noc(-c2ccc(NCCO)nc2)n1` (stereo not shown) [Example 74, 2-{[5-(3-{2-[6-(2-aminopyrimidin-5-yl)pyridin-3-yl]-3-methylbutan-2-yl}-1,2,4-oxadiazol-5-yl)pyridin-2-yl]amino}ethanol]: the values for the IC50 in assay [1] and in assay [2] were 220 nM and 3.1 nM, respectively.
